In ChEMBL document CHEMBL4828717, “Synthetic cajaninstilbene acid derivatives eradicate methicillin-resistant Staphylococcus aureus persisters and biofilms” (Eur J Med Chem, 2021):

What was measured:
[1] = test system: Staphylococcus aureus; assay: Antibacterial activity against methicillin resistant Staphylococcus aureus ATCC48706 assessed as reduction in microbial growth after 16 to 18 hrs by microbroth dilution method; assay type: functional; conditions: time 16-18 hrs
[2] = test system: Staphylococcus aureus; assay: Antibacterial activity against methicillin resistant Staphylococcus aureus ATCC49025 assessed as reduction in microbial growth after 16 to 18 hrs by microbroth dilution method; assay type: functional; conditions: time 16-18 hrs
[3] = test system: Staphylococcus aureus; assay: Antibacterial activity against methicillin resistant Staphylococcus aureus ATCC49800 assessed as reduction in microbial growth after 16 to 18 hrs by microbroth dilution method; assay type: functional; conditions: time 16-18 hrs
[4] = test system: Staphylococcus aureus; assay: Antibacterial activity against Staphylococcus aureus ATCC 25923 assessed as reduction in microbial growth after 16 to 18 hrs by microbroth dilution method; assay type: functional; conditions: time 16-18 hrs
[5] = test system: L02; assay: Cytotoxicity against human L02 cells assessed as cell viability at 10 ug/ml measured after 24 hrs by MTT assay; assay type: cell-based; conditions: l02, 24 h, dose 10 µg/ml
[6] = test system: Staphylococcus aureus; assay: Antibacterial activity against methicillin resistant Staphylococcus aureus ATCC48073 assessed as reduction in microbial growth after 16 to 18 hrs by microbroth dilution method; assay type: functional; conditions: time 16-18 hrs
[7] = test system: Escherichia coli; assay: Antibacterial activity against Escherichia coli ATCC25922 assessed as reduction in microbial growth after 16 to 18 hrs by microbroth dilution method; assay type: functional; conditions: ATCC 25922, time 16-18 hrs
[8] = test system: Staphylococcus aureus; assay: Antibacterial activity against methicillin resistant Staphylococcus aureus ATCC515992 assessed as reduction in microbial growth after 16 to 18 hrs by microbroth dilution method; assay type: functional; conditions: time 16-18 hrs
[9] = test system: Pseudomonas aeruginosa; assay: Antibacterial activity against Pseudomonas aeruginosa ATCC27853 assessed as reduction in microbial growth after 16 to 18 hrs by microbroth dilution method; assay type: functional; conditions: time 16-18 hrs
[10] = test system: RAW264.7; assay: Cytotoxicity against mouse RAW264.7 cells assessed as cell viability at 10 ug/ml measured after 24 hrs by MTT assay; assay type: cell-based; conditions: raw264.7, 24 h, dose 10 µg/ml
[11] = test system: Staphylococcus aureus; assay: Antibacterial activity against methicillin resistant Staphylococcus aureus ATCC513045 assessed as reduction in microbial growth after 16 to 18 hrs by microbroth dilution method; assay type: functional; conditions: time 16-18 hrs
[12] = test system: Staphylococcus aureus; assay: Antibacterial activity against methicillin resistant Staphylococcus aureus ATCC 62202 assessed as reduction in microbial growth after 16 to 18 hrs by microbroth dilution method; assay type: functional; conditions: time 16-18 hrs
[13] = test system: Staphylococcus aureus; assay: Antibacterial activity against methicillin resistant Staphylococcus aureus ATCC 52056 assessed as reduction in microbial growth after 16 to 18 hrs by microbroth dilution method; assay type: functional; conditions: time 16-18 hrs
[14] = test system: Staphylococcus aureus; assay: Antibacterial activity against methicillin resistant Staphylococcus aureus ATCC 43300 assessed as reduction in microbial growth after 16 to 18 hrs by microbroth dilution method; assay type: functional; conditions: time 16-18 hrs
[15] = test system: Enterococcus faecalis; assay: Antibacterial activity against Enterococcus faecalis ATCC29212 assessed as reduction in microbial growth after 16 to 18 hrs by microbroth dilution method; assay type: functional; conditions: ATCC 29212, time 16-18 hrs
[16] = test system: Staphylococcus aureus; assay: Antibacterial activity against methicillin resistant Staphylococcus aureus ATCC48966 assessed as reduction in microbial growth after 16 to 18 hrs by microbroth dilution method; assay type: functional; conditions: time 16-18 hrs
[17] = test system: Staphylococcus aureus; assay: Antibacterial activity against methicillin resistant Staphylococcus aureus ATCC49008 assessed as reduction in microbial growth after 16 to 18 hrs by microbroth dilution method; assay type: functional; conditions: time 16-18 hrs

| Compound | MIC [1] | MIC [2] | MIC [3] | MIC [4] | Activity [5] | MIC [6] | MIC [7] | MIC [8] | MIC [9] | Activity [10] | MIC [11] | MIC [12] | MIC [13] | MIC [14] | MIC [15] | MIC [16] | MIC [17] |
| --- | --- | --- | --- | --- | --- | --- | --- | --- | --- | --- | --- | --- | --- | --- | --- | --- | --- |
| CC(C)=CCc1c(OCCCC(F)(F)F)cc(/C=C/c2ccc(F)cc2)c(C(=O)O)c1O | 4 µg/mL | 4 µg/mL | 4 µg/mL | 4 µg/mL | Toxic | 4 µg/mL | > 32 µg/mL | 4 µg/mL | > 32 µg/mL | Toxic | 4 µg/mL | 4 µg/mL | 4 µg/mL | 4 µg/mL | > 32 µg/mL | 4 µg/mL | 4 µg/mL |
| CC(C)=CCc1c(OCCCCF)cc(/C=C/c2ccc(F)cc2)c(C(=O)O)c1O | 4 µg/mL | 4 µg/mL | 4 µg/mL | 4 µg/mL | Toxic | 4 µg/mL | > 32 µg/mL | 4 µg/mL | > 32 µg/mL | Toxic | 4 µg/mL | 4 µg/mL | 4 µg/mL | 4 µg/mL | > 32 µg/mL | 4 µg/mL | 4 µg/mL |
| CCC(C)Oc1cc(/C=C/c2ccc(F)cc2)c(C(=O)O)c(O)c1CC=C(C)C (stereo not drawn) | 4 µg/mL | 4 µg/mL | 4 µg/mL | 2 µg/mL | Toxic | 4 µg/mL | > 32 µg/mL | 4 µg/mL | > 32 µg/mL | Toxic | 2 µg/mL | 2 µg/mL | 2 µg/mL | 2 µg/mL | > 32 µg/mL | 4 µg/mL | 4 µg/mL |
| CC(C)=CCc1c(OC2CCCCC2)cc(/C=C/c2ccc(C(F)(F)F)cc2)c(C(=O)O)c1O | 4 µg/mL | 4 µg/mL | 4 µg/mL | 2 µg/mL | Toxic | 4 µg/mL | > 32 µg/mL | 2 µg/mL | > 32 µg/mL | Toxic | 2 µg/mL | 2 µg/mL | 2 µg/mL | 1 µg/mL | > 32 µg/mL | 4 µg/mL | 4 µg/mL |
| CC(C)=CCc1c(OC2CCC2)cc(/C=C/c2ccc(C(F)(F)F)cc2)c(C(=O)O)c1O | 1 µg/mL | 1 µg/mL | 2 µg/mL | 2 µg/mL | Toxic | 2 µg/mL | > 32 µg/mL | 2 µg/mL | > 32 µg/mL | Toxic | 1 µg/mL | 1 µg/mL | 1 µg/mL | 1 µg/mL | > 32 µg/mL | 1 µg/mL | 1 µg/mL |
| CC(C)=CCc1c(OC2CCCCCC2)cc(/C=C/c2ccc(C(F)(F)F)cc2)c(C(=O)O)c1O | 4 µg/mL | 4 µg/mL | 4 µg/mL | 4 µg/mL | Toxic | 4 µg/mL | > 32 µg/mL | 4 µg/mL | > 32 µg/mL | Toxic | 2 µg/mL | 2 µg/mL | 1 µg/mL | 1 µg/mL | > 32 µg/mL | 4 µg/mL | 4 µg/mL |
| CCC(CC)Oc1cc(/C=C/c2ccc(F)cc2)c(C(=O)O)c(O)c1CC=C(C)C | 2 µg/mL | 2 µg/mL | 2 µg/mL | 2 µg/mL | Toxic | 4 µg/mL | > 32 µg/mL | 4 µg/mL | > 32 µg/mL | Toxic | 2 µg/mL | 2 µg/mL | 2 µg/mL | 2 µg/mL | > 32 µg/mL | 2 µg/mL | 2 µg/mL |
| CCC(CC)Oc1cc(/C=C/c2ccc(C(F)(F)F)cc2)c(C(=O)O)c(O)c1CC=C(C)C | 2 µg/mL | 2 µg/mL | 2 µg/mL | 1 µg/mL | Toxic | 2 µg/mL | > 32 µg/mL | 2 µg/mL | > 32 µg/mL | Toxic | 1 µg/mL | 1 µg/mL | 1 µg/mL | 2 µg/mL | > 32 µg/mL | 2 µg/mL | 2 µg/mL |
| COc1cc(/C=C/c2ccccc2)c(C(=O)O)c(O)c1CC=C(C)C | 8 µg/mL | 8 µg/mL | 8 µg/mL | 8 µg/mL |  | 8 µg/mL | > 32 µg/mL | 16 µg/mL | > 32 µg/mL |  | 16 µg/mL | 16 µg/mL | 16 µg/mL | 16 µg/mL | > 32 µg/mL | 8 µg/mL | 8 µg/mL |
| CC(C)=CCc1c(OCC(F)(F)F)cc(/C=C/c2ccc(F)cc2)c(C(=O)O)c1O | 4 µg/mL | 4 µg/mL | 4 µg/mL | 4 µg/mL | Toxic | 4 µg/mL | > 32 µg/mL | 4 µg/mL | > 32 µg/mL | Toxic | 4 µg/mL | 4 µg/mL | 2 µg/mL | 2 µg/mL | > 32 µg/mL | 4 µg/mL | 4 µg/mL |
| NC[C@H]1O[C@H](O[C@H]2[C@H](O)[C@@H](O[C@H]3O[C@H](CO)[C@@H](O)[C@H](N)[C@H]3O)[C@H](N)C[C@@H]2N)[C@H](N)[C@@H](O)[C@@H]1O [BEKANAMYCIN] |  |  |  |  |  |  |  |  |  |  |  |  |  | 128 µg/mL |  |  |  |
| CC(C)=CCc1c(OCC(F)F)cc(/C=C/c2ccc(F)cc2)c(C(=O)O)c1O | 4 µg/mL | 4 µg/mL | 4 µg/mL | 4 µg/mL | Toxic | 4 µg/mL | > 32 µg/mL | 4 µg/mL | > 32 µg/mL | Toxic | 4 µg/mL | 4 µg/mL | 2 µg/mL | 4 µg/mL | > 32 µg/mL | 4 µg/mL | 4 µg/mL |
| CC(C)=CCc1c(OCC2CC2)cc(/C=C/c2ccc(C(F)(F)F)cc2)c(C(=O)O)c1O | 2 µg/mL | 2 µg/mL | 2 µg/mL | 1 µg/mL | Toxic | 2 µg/mL | > 32 µg/mL | 2 µg/mL | > 32 µg/mL | Toxic | 2 µg/mL | 2 µg/mL | 1 µg/mL | 2 µg/mL | > 32 µg/mL | 2 µg/mL | 2 µg/mL |
| CCCC(CC)Oc1cc(/C=C/c2ccc(C(F)(F)F)cc2)c(C(=O)O)c(O)c1CC=C(C)C (stereo not drawn) | 4 µg/mL | 8 µg/mL | 4 µg/mL | 4 µg/mL | Toxic | 4 µg/mL | > 32 µg/mL | 4 µg/mL | > 32 µg/mL | Toxic | 2 µg/mL | 2 µg/mL | 2 µg/mL | 2 µg/mL | > 32 µg/mL | 8 µg/mL | 8 µg/mL |
| CC(C)=CCc1c(OCCCF)cc(/C=C/c2ccc(F)cc2)c(C(=O)O)c1O | 4 µg/mL | 4 µg/mL | 4 µg/mL | 4 µg/mL | Toxic | 4 µg/mL | > 32 µg/mL | 4 µg/mL | > 32 µg/mL | Toxic | 4 µg/mL | 4 µg/mL | 2 µg/mL | 4 µg/mL | > 32 µg/mL | 4 µg/mL | 4 µg/mL |
| GENTAMICIN |  |  |  |  |  |  |  |  |  |  |  |  |  | 16 µg/mL |  |  |  |
| CCn1cc(C(=O)O)c(=O)c2cc(F)c(N3CCNCC3)cc21 [NORFLOXACIN] | 2 µg/mL | 1 µg/mL | 1 µg/mL | 2 µg/mL |  | 1 µg/mL | > 32 µg/mL | 32 µg/mL | > 32 µg/mL |  | 32 µg/mL | 2 µg/mL | 2 µg/mL | 32 µg/mL | > 32 µg/mL | 1 µg/mL | 1 µg/mL |
| CC1(C)S[C@@H]2[C@H](NC(=O)[C@H](N)c3ccccc3)C(=O)N2[C@H]1C(=O)O [AMPICILLIN] | > 128 µg/mL | > 128 µg/mL | > 128 µg/mL | 4 µg/mL |  | > 128 µg/mL | > 32 µg/mL | > 128 µg/mL | > 32 µg/mL |  | > 128 µg/mL | > 128 µg/mL | > 128 µg/mL | > 128 µg/mL | > 32 µg/mL | > 128 µg/mL | > 128 µg/mL |
